From ChEMBL document CHEMBL4373683, “Dual-target inhibitors of mycobacterial aminoacyl-tRNA synthetases among N-benzylidene-N'-thiazol-2-yl-hydrazines” (Medchemcomm, 2019) come the findings set out here.

Values after ≈ are worked out from the molar mass of the structure shown. Some results are limits rather than exact numbers.

The target in experiment [1] is T1, Leucine--tRNA ligase (Mycobacterium tuberculosis (strain ATCC 25618 / H37Rv)) (UniProt P9WFV1).
T1 sequence (whole entry): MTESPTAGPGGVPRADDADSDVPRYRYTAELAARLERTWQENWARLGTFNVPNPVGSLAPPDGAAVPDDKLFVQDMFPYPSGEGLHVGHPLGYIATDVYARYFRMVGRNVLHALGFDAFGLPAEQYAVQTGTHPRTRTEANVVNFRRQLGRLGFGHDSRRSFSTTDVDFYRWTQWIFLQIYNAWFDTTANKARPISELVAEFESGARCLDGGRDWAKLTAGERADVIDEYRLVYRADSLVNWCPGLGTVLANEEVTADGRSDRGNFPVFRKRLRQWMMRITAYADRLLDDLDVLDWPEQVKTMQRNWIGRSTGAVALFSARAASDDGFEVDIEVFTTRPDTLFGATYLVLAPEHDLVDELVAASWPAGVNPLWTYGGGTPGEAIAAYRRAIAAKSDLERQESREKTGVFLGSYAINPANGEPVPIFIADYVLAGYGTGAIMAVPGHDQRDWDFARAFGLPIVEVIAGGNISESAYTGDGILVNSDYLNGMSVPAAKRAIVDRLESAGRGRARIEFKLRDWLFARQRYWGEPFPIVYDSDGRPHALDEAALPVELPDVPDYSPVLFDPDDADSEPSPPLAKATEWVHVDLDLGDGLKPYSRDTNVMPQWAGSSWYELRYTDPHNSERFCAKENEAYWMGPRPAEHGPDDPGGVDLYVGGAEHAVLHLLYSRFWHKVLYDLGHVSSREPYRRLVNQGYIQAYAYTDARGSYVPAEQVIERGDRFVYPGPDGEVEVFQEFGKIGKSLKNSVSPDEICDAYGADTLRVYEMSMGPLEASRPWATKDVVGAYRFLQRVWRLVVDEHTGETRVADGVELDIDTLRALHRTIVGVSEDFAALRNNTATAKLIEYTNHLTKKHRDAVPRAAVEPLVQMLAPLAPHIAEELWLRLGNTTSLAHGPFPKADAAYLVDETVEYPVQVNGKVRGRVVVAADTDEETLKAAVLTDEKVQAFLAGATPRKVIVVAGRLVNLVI
Kind of experiment: Inhibition of Mycobacterium tuberculosis LeuRS expressed in Escherichia coli Rosetta (DE3) cells at 100 uM incubated for 30 mins followed by incubation with ATP, leucine, tRNA, iPPase for 10 mins and measured after 30 mins by BIOMOL Green reagent based plate reader analysis relative to control.

In experiment [2] the test system is Mycobacterium tuberculosis H37Rv. Nature of the experiment: Inhibition of recombinant Mycobacterium tuberculosis H37Rv C-terminal His6-tagged MetRS expressed in Escherichia coli BL21 (DE3) Star cells at 100 uM incubated for 30 mins followed by incubation with ATP, methionine, tRNA, iPPase for 10 mins and measured after 30 mins by BIOMOL Green reagent based plate reader analysis relative to control.

The target in another experiment is T2, Leucine--tRNA ligase (Mycobacterium tuberculosis (strain ATCC 25618 / H37Rv), UniProt P9WFV1).
T2 sequence (P9WFV1 whole entry): T1 sequence (whole entry)
Nature of the experiment: Inhibition of Mycobacterium tuberculosis LeuRS expressed in Escherichia coli Rosetta (DE3) cells incubated for 30 mins followed by incubation with ATP, leucine, tRNA, iPPase for 10 mins and measured after 30 mins by BIOMOL Green reagent based plate reader analysis.

Experiment [3] is described as follows: Inhibition of recombinant Mycobacterium tuberculosis H37Rv C-terminal His6-tagged MetRS expressed in Escherichia coli BL21 (DE3) Star cells incubated for 30 mins followed by incubation with ATP, methionine, tRNA, iPPase for 10 mins and measured after 30 mins by BIOMOL Green reagent based plate reader analysis.
Experiment [4] is described as follows: Inhibition of BIOMOL-Green signal at 50 uM in MtbMetRS reaction buffer in presence of 10 uM phosphate standard measured after 30 mins by plate reader analysis.
A further experiment relates to Saccharomyces cerevisiae. Nature of the experiment: Inhibition of yeast inorganic pyrophosphatase assessed as inhibition of BIOMOL-Green signal using inorganic pyrophosphate as substrate at 50 uM incubated for 10 mins in MtbMetRS reaction buffer and measured after 30 mins by BIOMOL-Green reagent based plate reader analysis.
For experiment [5], the system named is Mycobacterium tuberculosis. In kind it is functional. Conditions: H37Rv ATCC 27294, 168 h; call rule not given here.
Experiment [6] concerns Mycobacterium tuberculosis. In kind it is functional. To be noted: H37Rv ATCC 27294, 336 h.
Experiment [7] has as its system Mycobacterium tuberculosis. The format is functional. To be noted: H37Rv ATCC 27294, 336 h. This is another data set of the same source.
In experiment [8] the test system is Mycobacterium tuberculosis. The format is functional. To be noted: H37Rv ATCC 27294, 168 h. The source holds these as a separate data set.
In experiment [9] the test system is Mycobacterium tuberculosis. In kind it is functional. To be noted: H37Rv ATCC 27294, 336 h. This is another data set of the same source.
The test system of experiment [10] is Mycobacterium tuberculosis. In kind it is functional. Conditions: H37Rv ATCC 27294, 336 h. This is another data set of the same source.
The test system of experiment [11] is Mycobacterium tuberculosis. In kind it is functional. To be noted: H37Rv ATCC 27294, 168 h. This is another data set of the same source.
Experiment [12] deals with Mycobacterium tuberculosis. The format is functional. To be noted: H37Rv ATCC 27294, 168 h. The source holds these as a separate data set.

For `Cc1csc(N/N=C/c2ccc([N+](=O)[O-])cc2)n1`, the inhibition in experiment [1] came to 20%; in experiment [2], 92%.

On to `Cc1csc(N/N=C/c2ccccc2Br)n1`, for which the IC50 against Leucine--tRNA ligase was found to be 38.4 µM; in [3] (read-out: IC50), 123 µM.

Regarding `COc1cc(/C=N/Nc2nc(C)c(C(C)=O)s2)ccc1OCc1ccccc1Cl`, the inhibition is under 35% in experiment [4], 87% in experiment [1], under 35% in the experiment with Saccharomyces cerevisiae and 113% in [2].

For `CCOC(=O)c1sc(N/N=C/c2cc(Br)c(O)c(OC)c2)nc1C`, the inhibition worked out at 54% in experiment [1] and 94% in [2].

For `CCOC(=O)c1sc(N/N=C/c2ccccc2C(F)(F)F)nc1C`, the inhibition in [1] was determined as 34%; in experiment [2], 45%.

`O=[N+]([O-])c1cccc(-c2csc(N/N=C/c3cccc(Oc4ccccc4)c3)n2)c1`: the inhibition in [1] turned out to be 11%; in experiment [2] it was 65%.

On to `O=[N+]([O-])c1ccccc1/C=N/Nc1nccs1`, for which the inhibition in experiment [1] amounted to 45%; in experiment [2], 51%.

Consider `COc1cccc(/C=N/Nc2nc(C)cs2)c1OC`, for which the inhibition came to 17% in experiment [1] and 25% in experiment [2].

As for `Cc1csc(N/N=C/c2cc(Br)ccc2O)n1`, the inhibition in [1] worked out at 39%; in experiment [2], 113%.

As for `Brc1ccccc1/C=N/Nc1nc(-c2ccccc2)cs1`, the half-maximal inhibitory concentration (IC50) against Leucine--tRNA ligase was determined as 24.1 µM; in experiment [3] (read-out: IC50) it was 37.5 µM.

Take `COC(=O)c1sc(N/N=C/c2ccc(Br)cc2)nc1C`: the inhibition in experiment [4] is under 35%; in experiment [1], 46%; with Saccharomyces cerevisiae, under 35%; in experiment [2], 88%.

For the compound `CCOC(=O)c1sc(N/N=C/c2cccc(O)c2)nc1C`, the inhibition in experiment [1] was 1%; in [2], 71%.

For the compound `CCOC(=O)c1sc(N/N=C/c2ccc(Br)cc2)nc1C`, the inhibition in experiment [4] was under 35%; in experiment [1] it was 39%; with Saccharomyces cerevisiae, under 35%; in [2] it was 111%.

Turning to `CCOC(=O)c1sc(N/N=C/c2ccc(C(=O)O)cc2)nc1C`, the values for the inhibition in experiment [1] and in experiment [2] were -7% and 6%, respectively.

For the compound `O=[N+]([O-])c1cc(/C=N/Nc2nc(-c3ccccc3)cs2)ccc1O`, the inhibition in experiment [4] was under 35%; in [1], 53%; in the experiment on Saccharomyces cerevisiae, under 35%; in [2] it was 72%.

For `COc1ccc(OC)c(/C=N/Nc2nc(-c3cccnc3)cs2)c1`, the inhibition came out at 74% in experiment [1] and 115% in experiment [2].

As for `O=C(O)c1ccc(/C=N/Nc2nc(-c3ccc(Cl)cc3Cl)cs2)cc1`, the minimal inhibitory concentration (MIC) in [5], in [6], in experiment [7], in [8], in [9] and in [10] was over 50 µM each time. The minimal inhibitory concentration (MIC) in [11] and in [12] was over 50 µM in each case. In addition, the concentration for half-maximal inhibition (IC50) at Leucine--tRNA ligase was found to be 27.3 µM; in experiment [3] (read-out: IC50) it was 22.7 µM. Moreover, the inhibition in experiment [1] came out at 101%; in experiment [2], 92%.

As for `CCOC(=O)c1sc(N/N=C/c2ccccc2Br)nc1C`, the inhibition in [1] was 67%; in experiment [2] it was 99%.

As for `CCCCCCOc1ccc(/C=N/Nc2nccs2)cc1OC`, the inhibition in [1] turned out to be 47%; in [2], 62%.

As for `CCOC(=O)c1sc(N/N=C/c2ccccc2)nc1C`, the inhibition in experiment [1] was found to be 19%; in [2] it was 73%.

Turning to `COc1cc(/C=N/Nc2nc(-c3ccc([N+](=O)[O-])cc3)cs2)cc([N+](=O)[O-])c1O`, the minimal inhibitory concentration (MIC) in experiment [5] is at least 50 µM; in experiment [6], over 50 µM; in [7] it was over 50 µM; in experiment [8], 50 µM (≈ 20.8 µg/mL); in experiment [9], at least 50 µM; in experiment [10], over 50 µM. The minimum inhibitory concentration (MIC) in experiment [11] was 50 µM (≈ 20.8 µg/mL); in experiment [12], over 50 µM. Besides, the concentration for half-maximal inhibition (IC50) against Leucine--tRNA ligase was found to be 5.8 µM; in [3] (read-out: IC50), 4.2 µM. Besides, the inhibition turned out to be 103% in experiment [1] and 94% in experiment [2].

For the compound `COc1cc(/C=N/Nc2nccs2)cc(Br)c1OCc1ccccc1`, the inhibition in experiment [4] was under 35%; in experiment [1] it was 55%; in the experiment on Saccharomyces cerevisiae, under 35%; in experiment [2] it was 106%.

As for `COc1cc(/C=N/Nc2nccs2)ccc1OCc1ccccc1Cl`, the inhibition in [4] is under 35%; in experiment [1], 64%; in the experiment with Saccharomyces cerevisiae, under 35%; in experiment [2], 102%.

Consider `COc1ccc(/C=N/Nc2nccs2)cc1Br`, for which the inhibition in [1] was 29%; in experiment [2] it was 90%.

On to `COc1ccc(/C=N/Nc2nc(C)c(C)s2)cc1`, for which the inhibition in experiment [1] and in experiment [2] was 1% each time.

For the compound `CCOC(=O)Cc1csc(N/N=C/c2ccc(C(=O)O)cc2)n1`, the results for the inhibition in [1] and in [2] were 12% and 22%, respectively.

As to `COc1cc(/C=N/Nc2nccs2)ccc1OC(=O)c1ccc(Cl)cc1Cl`, the inhibition in experiment [4] is under 35%; in [1], 73%; with Saccharomyces cerevisiae, under 35%; in experiment [2], 142%.

Turning to `Oc1ccccc1/C=N/Nc1nc(-c2ccccc2)cs1`, the results for the inhibition in [1] and in [2] were 7% and 51%, respectively.

In the case of `Cc1csc(N/N=C/c2ccc(C(=O)O)cc2)n1`, the inhibition in [1] is -4%.

As for `COc1ccc(/C=N/Nc2nc(C)cs2)cc1Br`, the results for the IC50 (on Leucine--tRNA ligase; in experiment [3]) were 95 µM and “Not Active”, respectively.

`CCOC(=O)c1sc(N/N=C/c2cc(Br)c(O)c(Br)c2)nc1C`: the inhibition in experiment [1] stood at 55%; in [2], 51%.

Regarding `CN(C)c1ccc(/C=N/Nc2nc(-c3ccccc3)cs2)cc1`, the inhibition in [4] is under 35%; in experiment [1] it was 65%; in the experiment on Saccharomyces cerevisiae it was under 35%; in experiment [2], 123%.

As for `COC(=O)c1sc(N/N=C/c2ccc([N+](=O)[O-])cc2)nc1C`, the inhibition came to 88% in experiment [1] and 75% in experiment [2].

Regarding `Cc1sc(N/N=C/c2cccc(O)c2)nc1-c1ccccc1`, the inhibition in [4] was under 35%; in [1], 65%; in the experiment on Saccharomyces cerevisiae, under 35%; in [2], 112%.

Turning to `NNC(=O)c1ccncc1` [ISONIAZID], the minimal inhibitory concentration (MIC) is 0.39 µM (≈ 0.0535 µg/mL) in [5]; 0.39 µM (≈ 0.0535 µg/mL) in experiment [6]; 0.6 µM (≈ 0.0823 µg/mL) in experiment [7]; 0.6 µM (≈ 0.0823 µg/mL) in [8]; 0.3 µM (≈ 0.0411 µg/mL) in [9]; 0.1 µM (≈ 0.0137 µg/mL) in experiment [10]. The MIC in experiment [11] was found to be 0.1 µM (≈ 0.0137 µg/mL); in [12], 0.07 µM (≈ 0.0096 µg/mL).

As for `COC(=O)c1sc(N/N=C/c2ccc(C(=O)O)cc2)nc1C`, in experiment [1], the inhibition is 12%.

Regarding `CCOc1ccc(/C=N/Nc2nc(C)c(C(C)=O)s2)cc1`, the inhibition in experiment [1] worked out at 20%; in experiment [2], 53%.

For `COc1cc(/C=N/Nc2nc(-c3ccc(Br)cc3)cs2)cc([N+](=O)[O-])c1O`, the inhibition in [4] is under 35%; in experiment [1] it was 113%; in the experiment with Saccharomyces cerevisiae, under 35%; in [2], 110%.

Take `CCc1ccc(/C=N/Nc2nc(-c3cccc([N+](=O)[O-])c3)cs2)cc1`: the inhibition in experiment [1] came to 3%; in experiment [2], 27%.
